Here are results for four molecules from ChEMBL document CHEMBL2321828, “Interrogation of the Active Sites of Protein Arginine Deiminases (PAD1, -2, and -4) Using Designer Probes” (ACS Med Chem Lett, 2013).

For test [1], the target named is Protein-arginine deiminase type-4 (Homo sapiens) (UniProt Q9UM07). As to the kind of experiment: Ratio of Kinact to Ki for human PAD4 using BAEE as substrate after 30 mins.
Test [2] addresses Protein-arginine deiminase type-2 (Mus musculus) (UniProt Q08642). As to the kind of experiment: Ratio of Kinact to Ki for mouse PAD2 using BAEE as substrate after 30 mins.
Test [3] has as its target T1, Protein-arginine deiminase type-1 (Homo sapiens) (UniProt Q9ULC6).
T1 sequence (whole entry): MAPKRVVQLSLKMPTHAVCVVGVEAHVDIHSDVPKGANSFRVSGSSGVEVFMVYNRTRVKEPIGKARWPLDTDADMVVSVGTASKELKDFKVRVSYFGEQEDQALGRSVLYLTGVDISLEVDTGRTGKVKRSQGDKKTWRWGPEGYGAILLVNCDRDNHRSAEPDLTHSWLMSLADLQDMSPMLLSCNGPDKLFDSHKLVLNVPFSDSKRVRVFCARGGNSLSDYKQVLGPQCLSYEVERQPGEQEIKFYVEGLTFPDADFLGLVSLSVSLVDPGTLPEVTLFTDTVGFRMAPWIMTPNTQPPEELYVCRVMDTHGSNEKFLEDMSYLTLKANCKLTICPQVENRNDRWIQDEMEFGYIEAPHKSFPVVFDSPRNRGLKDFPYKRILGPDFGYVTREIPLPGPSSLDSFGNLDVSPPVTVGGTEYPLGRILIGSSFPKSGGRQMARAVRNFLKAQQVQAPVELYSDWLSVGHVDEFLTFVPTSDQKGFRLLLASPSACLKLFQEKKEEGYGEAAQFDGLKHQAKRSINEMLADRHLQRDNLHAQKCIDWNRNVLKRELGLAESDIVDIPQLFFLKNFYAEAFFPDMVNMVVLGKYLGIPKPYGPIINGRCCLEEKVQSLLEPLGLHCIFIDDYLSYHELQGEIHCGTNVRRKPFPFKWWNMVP
As to the kind of experiment: Ratio of Kinact to Ki for human PAD1 using BAEE as substrate after 30 mins.

Sequence of Protein-arginine deiminase type-2 (Mus musculus) (Q08642 whole entry): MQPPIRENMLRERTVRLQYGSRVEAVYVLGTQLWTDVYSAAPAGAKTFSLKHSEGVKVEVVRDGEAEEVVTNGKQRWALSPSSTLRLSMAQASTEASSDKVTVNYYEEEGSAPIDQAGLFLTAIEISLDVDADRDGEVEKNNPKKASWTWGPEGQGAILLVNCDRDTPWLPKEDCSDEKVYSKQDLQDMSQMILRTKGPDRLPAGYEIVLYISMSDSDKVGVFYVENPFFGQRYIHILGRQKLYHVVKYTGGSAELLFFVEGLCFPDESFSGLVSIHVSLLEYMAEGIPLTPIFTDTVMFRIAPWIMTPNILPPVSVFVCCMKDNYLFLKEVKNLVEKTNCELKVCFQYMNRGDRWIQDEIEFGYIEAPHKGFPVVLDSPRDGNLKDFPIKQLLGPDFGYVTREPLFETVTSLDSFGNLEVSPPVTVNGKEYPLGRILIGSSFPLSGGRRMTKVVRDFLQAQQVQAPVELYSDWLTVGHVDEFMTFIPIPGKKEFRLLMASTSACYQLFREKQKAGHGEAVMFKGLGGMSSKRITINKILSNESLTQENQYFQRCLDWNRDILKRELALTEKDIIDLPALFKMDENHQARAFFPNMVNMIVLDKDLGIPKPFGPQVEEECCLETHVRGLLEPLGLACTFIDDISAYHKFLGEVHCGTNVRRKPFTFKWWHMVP
Sequence of Protein-arginine deiminase type-4 (Homo sapiens) (Q9UM07 whole entry): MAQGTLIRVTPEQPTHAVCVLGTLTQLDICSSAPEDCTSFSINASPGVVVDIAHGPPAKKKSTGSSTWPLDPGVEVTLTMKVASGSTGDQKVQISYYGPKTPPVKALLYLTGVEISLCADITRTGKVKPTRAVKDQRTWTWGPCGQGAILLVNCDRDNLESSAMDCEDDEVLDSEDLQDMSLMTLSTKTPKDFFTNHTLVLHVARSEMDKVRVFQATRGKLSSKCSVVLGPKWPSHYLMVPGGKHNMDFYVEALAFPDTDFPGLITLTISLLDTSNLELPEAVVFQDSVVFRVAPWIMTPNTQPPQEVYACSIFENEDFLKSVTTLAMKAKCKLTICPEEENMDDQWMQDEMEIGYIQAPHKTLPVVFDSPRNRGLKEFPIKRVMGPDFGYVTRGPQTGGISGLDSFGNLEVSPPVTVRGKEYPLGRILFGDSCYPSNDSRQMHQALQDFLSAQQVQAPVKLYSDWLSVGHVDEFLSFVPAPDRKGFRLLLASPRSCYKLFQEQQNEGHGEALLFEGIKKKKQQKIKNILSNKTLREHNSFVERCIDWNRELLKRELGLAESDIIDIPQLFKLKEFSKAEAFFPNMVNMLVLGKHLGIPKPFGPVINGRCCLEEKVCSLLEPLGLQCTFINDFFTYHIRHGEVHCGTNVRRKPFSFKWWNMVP

Take `COC(=O)[C@H](CCCCNC(=N)CCl)NC(C)=O`: the values for the Ratio in test [1], in test [2] and in test [3] were 50 M⁻¹ min⁻¹, 120 M⁻¹ min⁻¹ and 62 M⁻¹ min⁻¹, respectively.

As for `COC(=O)[C@H](CCNC(=N)CCl)NC(C)=O`, the Ratio stood at 183 M⁻¹ min⁻¹ in test [1], 50 M⁻¹ min⁻¹ in test [2] and 111 M⁻¹ min⁻¹ in test [3].

Regarding `COC(=O)[C@H](CCCNC(=N)CCl)NC(C)=O`, the Ratio stood at 865 M⁻¹ min⁻¹ in test [1], 167 M⁻¹ min⁻¹ in test [2] and 497 M⁻¹ min⁻¹ in test [3].

For `N=C(N)CCl`, the Ratio in test [1] came out at 60 M⁻¹ min⁻¹; in test [2] it was 9 M⁻¹ min⁻¹; in test [3], 32 M⁻¹ min⁻¹.
